Assay results as given in PubChem BioAssay (NCI).
Several values for one entry are separate records, joined by “and”; a condition that tells them apart may be missing. Equal values may be shown once.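 All cell lines were grown in 96-well plates and treated with compound for 48 hours. The concentration for 50% growth inhibition is given as GI50. Definition used: TGI = concentration required for complete inhibition of growth.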

Legend:
Assay in all cases: NCI-60 cell line screen, 48 h
[1] = tested on: RPMI-8226 leukemia
[2] = tested on: A498 renal
[3] = tested on: KM12 colon
[4] = tested on: UACC-62 melanoma
[5] = tested on: UO-31 renal
[6] = tested on: OVCAR-8 ovarian
[7] = tested on: A549 NSCLC
[8] = tested on: IGROV1 ovarian
[9] = tested on: HOP-62 NSCLC
[10] = tested on: HT29 colon
[11] = tested on: MALME-3M melanoma
[12] = tested on: HOP-92 NSCLC
[13] = tested on: SK-MEL-2 melanoma
[14] = tested on: TK-10 renal

Row | Compound | TGI [1] [µM] | TGI [2] [µM] | TGI [3] [µM] | TGI [4] [µM] | TGI [5] [µM] | TGI [6] [µM] | TGI [7] [µM] | TGI [8] [µM] | TGI [9] [µM] | TGI [10] [µM] | TGI [11] [µM] | TGI [12] [µM] | TGI [13] [µM] | TGI [14] [µM] | GI50 [2] | GI50 [3] | GI50 [9]
1 | COc1ccc2c(c1)CC[C@@H]1[C@@H]2CC[C@]2(C)/C(=N/OCCN3CCCC3)CC[C@@H]12 | 3.65 | 9.9 | 6.31 | 3.53 | 7.54 | 12.4 | 7.7 | 18.4 | 4.67 | 3.96 | 3.17 | 6.5 | 4.2 | 16.9 | – | – | –
2 | N/C(=N\N=C\c1cc2ccccc2s1)c1cnccn1 | > 100 | > 100 | > 100 | > 100 | > 100 | > 100 | > 100 | > 100 | > 100 | > 100 | – | > 100 | > 100 | > 100 | – | – | –
3 | OC1(c2ccccc2)CC2CCC(C1)N2CCCC(O)(c1ccccc1)c1ccccc1 (configuration not stated) | 6.4 | 29.1 | 30.3 | 28.5 | 20.2 | 36.1 | 34.4 | 29.9 | 29 | 9.64 | 39.1 | 18.9 | 37.6 | 25.8 | – | – | –
4 | CN1C(=O)N(C)C2(CCN(CC(CC3OCCO3)c3ccc(F)cc3)CC2)C1=O (configuration not stated) | > 100 | > 100 | – | > 100 | > 100 | > 100 | > 100 | > 100 | > 100 | > 100 | > 100 | > 100 | > 100 | > 100 | – | – | –
5 | O=C1NC(=O)C(C(=O)C(=O)Nc2cc(Cl)ccc2Cl)C(=O)N1 | > 100 | > 100 | > 100 | > 100 | > 100 | > 100 | > 100 | > 100 | > 100 | – | > 100 | > 100 | > 100 | > 100 | – | – | –
6 | O=[N+]([O-])c1ccc(CSc2nn(Cc3ccc([N+](=O)[O-])cc3)cc3ncnc2-3)cc1 | 75 | 58.8 | > 100 | 40.7 | 61.2 | > 100 | > 100 | 52.1 | > 100 | > 100 | 65.2 | 30.4 | 49.1 | > 100 | – | – | –
7 | CN1C(=O)c2ccccc2C(O)(c2ccccc2)C1(O)c1ccccc1 (configuration not stated) | > 100 | > 100 | > 100 | > 100 | > 100 | > 100 | > 100 | > 100 | > 100 | > 100 | > 100 | 97.7 | > 100 | > 100 | – | – | –
8 | CC(=O)Nc1ccc(-c2nnc(SCC(=O)Nc3cccc(C)c3)o2)cc1 | 67 | – | 22.6 | 20.9 | 26.3 | 38.9 | 68.6 | 24.7 | 73.2 | 25.4 | 27.2 | 26.2 | 28.6 | 29.2 | – | – | –
9 | CCCNC1=C2C[C@@H](C)C[C@@H](OC)[C@@H](OC(=O)CCCN)[C@H](C)/C=C(\C)[C@@H](OC(N)=O)[C@H](OC)/C=C\C=C(/C)C(=O)NC(=CC1=O)C2=O | 29.1 | 37.1 | 26.1 | 29.4 | 36.1 | 43.7 | 40.6 | 34.8 | 31.3 | 22.9 | 28.4 | 25.8 | 30.9 | 36.1 | – | – | –
10 | O=C1CC(c2ccc(Cl)cc2)C2(C(=O)NC(=S)NC2=O)C(c2ccc(Cl)cc2)C1 (configuration not stated) | 51.2 | 31.4 | 40.1 | 34.4 | 48.9 | – | 73 | – | 54.7 | 32.4 | 52.1 | 40.3 | 36.1 | > 100 | – | – | –
11 | CC(C)OP(=O)(OC(C)C)C(=NCCO)NNc1ccc([N+](=O)[O-])cc1 | > 100 | > 100 | > 100 | > 100 | > 100 | > 100 | > 100 | – | > 100 | – | > 100 | > 100 | > 100 | > 100 | – | – | –
12 | c1ccc(-c2cnc(SC(c3ccccc3)c3ccccc3)[nH]2)cc1 | 48.5 | > 100 | > 100 | 42.1 | > 100 | > 100 | > 100 | > 100 | > 100 | > 100 | 73.9 | 54 | 53.2 | > 100 | – | – | –
13 | Cc1ccc2nc(N)[nH]c(=O)c2c1Sc1ccncc1 | > 100 | > 100 | > 100 | > 31.6 | > 100 | > 100 | > 100 | > 100 | > 100 | > 100 | > 100 | > 100 | > 100 | > 100 | – | – | –
14 | O=c1oc2cc(O)ccc2c2[nH]c3cc(O)ccc3c12 | > 100 | > 100 | 53.1 | 31.7 | 97.5 | 78.7 | > 100 | 57.9 | 59.6 | > 100 | > 100 | 95.4 | 50.2 | > 100 | – | – | –
15 | Cc1nc2cn3c(c2c(=O)[nH]1)CCCCC3 | > 100 | > 100 | > 100 | > 100 | > 100 | > 100 | – | > 100 | > 100 | > 100 | – | > 100 | > 100 | > 100 | – | – | –
16 | C=CCn1c(-c2cc(C(C)(C)C)c(O)c(C(C)(C)C)c2)cs/c1=N\C(P(=O)(O)O)P(=O)(O)O | > 100 | > 100 | > 100 | – | > 100 | > 100 | > 100 | > 100 | > 100 | > 100 | > 100 | > 100 | > 100 | > 100 | – | – | –
17 | COC(=O)C1OC(O[C@H]2CC[C@]3(C)[C@H]4CC=C5[C@@H]6CC(C)(C)CC[C@]6(C(=O)OC)CC[C@@]5(C)[C@]4(C)CC[C@H]3C2(C)C)C(O)C(O)C1O (some centres not stated) | 51.7 | 34.3 | 20.7 | 31 | 33.4 | 31.2 | 22.5 | 37.4 | 31.9 | 22.9 | 38.2 | 34.7 | 31.9 | – | – | – | –

Row | Compound | TGI [1] [µM] | TGI [2] [µM] | TGI [3] [µM] | TGI [4] [µM] | TGI [5] [µM] | TGI [6] [µM] | TGI [7] [µM] | TGI [8] [µM] | TGI [9] [µM] | TGI [10] [µM] | TGI [11] [µM] | TGI [12] [µM] | TGI [13] [µM] | TGI [14] [µM] | GI50 [2] | GI50 [3] | GI50 [9]
18 | Nc1nc(Cl)cc(NCC2(CO)CCCCC2)n1 | > 100 | > 100 | > 100 | > 100 | > 100 | > 100 | > 100 | > 100 | > 100 | > 100 | > 100 | > 100 | > 100 | > 100 | – | – | –
19 | COC(CNC(=O)CNC(=O)c1ccc(C(F)(F)F)cc1)OC | > 100 | – | > 100 | > 100 | > 100 | > 100 | > 100 | > 100 | – | > 100 | > 100 | > 100 | > 100 | > 100 | – | – | –
20 | CCO/C(O)=C(/C(=N)N1CCOCC1)C(=O)Nc1cccc(C(F)(F)F)c1 | > 100 | > 100 | > 100 | > 100 | – | > 100 | > 100 | > 100 | > 100 | > 100 | > 100 | > 100 | > 100 | > 100 | – | – | –
21 | CC(=O)NNc1nc(C)c(C(=O)NNC(=O)C(=O)Nc2ccc(Cl)c([N+](=O)[O-])c2)s1 | > 100 | – | > 100 | > 100 | > 100 | > 100 | > 100 | > 100 | > 100 | > 100 | > 100 | > 100 | > 100 | > 100 | – | – | –
22 | CCOC(=O)COc1cc(-c2ccccc2F)nc2cc3c(cc12)OCO3 | > 100 | – | > 100 | > 100 | – | > 100 | > 100 | > 100 | > 100 | > 100 | > 100 | 98.8 | > 100 | > 100 | – | – | –
23 | Oc1cc(O)c2c(c1)O[C@H](c1ccc(O)c(O)c1)[C@@H](O)C2 | > 100 | – | > 100 | – | > 100 | > 100 | > 100 | > 100 | > 100 | > 100 | > 100 | > 100 | > 100 | > 100 | – | – | –
24 | c1ccc(CN2CCC(=NN3CCCCC3)CC2)cc1 | 66.3 | – | > 100 | > 100 | > 100 | > 100 | > 100 | > 100 | > 100 | > 100 | > 100 | > 100 | > 100 | > 100 | – | – | –
25 | C/C(=N\Nc1ccccc1)c1sc(-c2nc(C)c(/C(C)=N/Nc3ccccc3)s2)nc1C | > 100 | > 100 | > 100 | 13.6 | > 60.7 | > 100 | > 35.8 | > 60.9 | – | 26.2 | 51 | > 57.6 | > 100 | > 100 | – | – | –
26 | N=c1c2sc3nc4ccccc4n3c2ncn1Cc1ccccc1 | > 100 | > 100 | > 100 | > 100 | > 100 | > 100 | > 100 | > 100 | > 100 | – | > 100 | > 100 | > 100 | > 100 | – | – | –
27 | CCN(CC)CC1CCCCN1CC(=O)N1c2cc(Cl)ccc2NC(=O)CC1C (configuration not stated) | > 100 | > 100 | > 100 | > 100 | > 100 | > 100 | > 100 | – | > 100 | – | > 100 | > 100 | > 100 | > 100 | – | – | –
28 | Cc1ccc(S(=O)(=O)N(CC(O)COc2ccccc2)c2c(F)c(F)cc(F)c2F)cc1 (configuration not stated) | 41.4 | 39 | 70.6 | 37.5 | 41.3 | 49.7 | 72.8 | – | 52.6 | 33.4 | 64.1 | 34.2 | 31.3 | 84.1 | – | – | –
29 | CCOC(=O)/C(Br)=C1\OC(=O)c2ccccc2-c2ccccc21 | > 100 | – | > 100 | > 100 | > 100 | > 100 | > 100 | > 100 | 54.7 | > 100 | > 100 | 79.9 | > 100 | > 100 | – | – | –
30 | Cc1ccc(S(=O)(=O)NC(=O)Nc2c(S(N)(=O)=O)cc(S(N)(=O)=O)c(Cl)c2Cl)cc1 | > 100 | > 100 | > 100 | > 100 | > 100 | > 100 | > 100 | > 100 | – | > 100 | > 100 | > 100 | > 100 | > 100 | – | – | –
31 | COc1ccc(/C=C2/N=C(N/N=C\C(O)C(O)C(O)CO)NC2=O)cc1 (configuration not stated) | > 100 | > 100 | > 100 | – | > 100 | > 100 | > 100 | > 100 | > 100 | > 100 | > 100 | > 100 | > 100 | > 100 | > 100 µM and 32.6 µM | > 100 µM and 26.9 µM | > 100 µM and 49.6 µM
32 | O=C(N/N=C(/COc1ccccc1)N=Cc1ccncc1)c1ccncc1 | > 100 | > 100 | > 100 | > 100 | – | > 100 | > 100 | > 100 | > 100 | > 100 | – | > 100 | > 100 | > 100 | – | – | –
33 | COC1(OC)CC2C(=O)N(Cc3ccccc3)C1C(S(=O)(=O)c1ccccc1)C2C(C)S(=O)(=O)c1ccccc1 (configuration not stated) | > 100 | – | > 100 | > 100 | – | > 100 | > 100 | > 100 | > 100 | > 100 | > 100 | > 100 | > 100 | > 100 | – | – | –
